Laboratory results taken from ChEMBL document CHEMBL4359863, “Structure-guided development of purine amide, hydroxamate, and amidoxime for the inhibition of non-small cell lung cancer” (Eur J Med Chem, 2019).
The source made the active and inactive calls. The calls are words filed in the database; no cut-off is given here.

Legend:
Tubulin (Homo sapiens) [1] = molecular target: T1, Tubulin (Homo sapiens) (UniProt P68371+Q9H4B7+P0DPH7+P68366+Q13509+Q71U36+P04350+Q3ZCM7+P07437+P68363+Q9BQE3+Q6PEY2+Q13885+Q9BVA1+Q9BUF5); assay: Induction of microtubule fragmentation in human NCI-H1975 cells at 30 nM incubated for 12 hrs by DAPI staining based laser confocal microscopic method; format: cell-based
[2] = molecular target: Katanin p60 ATPase-containing subunit A1 (Homo sapiens) (UniProt O75449); assay: Binding affinity to katanin p60 in human NCI-H1975 cells using biotin labelled compound incubated for 16 hrs by streptavidin based immunoprecipitation method; format: cell-based
NCI-H1975 = assay: Antiproliferative activity against human NCI-H1975 cells incubated for 48 hrs by celltiter-Glo assay; format: functional, cell-based; conditions: NCI-H1975, 48 h
Tubulin (Homo sapiens) [3] = molecular target: T1, Tubulin (Homo sapiens); assay: Induction of microtubule fragmentation in human NCI-H1975 cells at 50 nM incubated for 12 hrs by DAPI staining based laser confocal microscopic method; format: cell-based
Tubulin (Homo sapiens) [4] = molecular target: T1, Tubulin (Homo sapiens); assay: Induction of microtubule fragmentation in human NCI-H1975 cells at 140 nM incubated for 12 hrs by DAPI staining based laser confocal microscopic method; format: cell-based

Katanin p60 ATPase-containing subunit A1 (Homo sapiens), sequence (O75449 whole entry): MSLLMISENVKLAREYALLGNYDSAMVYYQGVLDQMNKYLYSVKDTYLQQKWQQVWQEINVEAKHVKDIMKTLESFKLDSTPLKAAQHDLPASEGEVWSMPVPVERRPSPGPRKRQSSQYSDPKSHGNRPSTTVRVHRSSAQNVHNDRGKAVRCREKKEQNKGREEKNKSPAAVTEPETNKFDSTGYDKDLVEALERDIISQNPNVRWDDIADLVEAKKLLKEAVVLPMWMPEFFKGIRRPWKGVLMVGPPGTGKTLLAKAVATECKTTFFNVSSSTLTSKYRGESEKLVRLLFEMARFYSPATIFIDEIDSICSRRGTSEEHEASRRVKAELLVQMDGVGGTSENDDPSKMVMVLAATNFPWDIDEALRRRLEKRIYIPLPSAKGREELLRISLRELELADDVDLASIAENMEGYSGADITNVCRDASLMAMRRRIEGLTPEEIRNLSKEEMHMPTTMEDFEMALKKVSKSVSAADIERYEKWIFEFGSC

## CCOc1ccc(-c2nc(C(N)=O)c3[nH]c(=O)n(-c4ccccc4OC)c3n2)cc1
Tubulin (Homo sapiens) [1]
  Activity: Active

## CC(C)(C)OC(=O)NCCCCCNC(=O)CCCC[C@@H]1SC[C@@H]2NC(=O)N[C@@H]21
[2]
  Activity: inactive

## CCOc1ccc(-c2nc(/C(N)=N/O)c3[nH]c(=O)n(-c4cccc(C(=O)NCCCCCNC(=O)CCCC[C@@H]5SC[C@@H]6NC(=O)N[C@@H]65)c4)c3n2)cc1
[2]
  Activity: Active

## COc1ccccc1-n1c(=O)[nH]c2c(C(N)=O)nc(-c3ccc4c(c3)OCO4)nc21
NCI-H1975
  IC50: 7.6 µM

## CCOc1ccc(-c2nc(C(N)=O)c3[nH]c(=O)n(-c4cccc(C(=O)NCCCCCNC(=O)CCCC[C@@H]5SC[C@@H]6NC(=O)N[C@@H]65)c4)c3n2)cc1
[2]
  Activity: Active

## CCOc1ccc(-c2nc(/C(N)=N/O)c3[nH]c(=O)n(-c4ccccc4OC)c3n2)cc1
Tubulin (Homo sapiens) [3]
  Activity: Active

## CCOc1ccc(-c2nc(C(=O)NO)c3[nH]c(=O)n(-c4ccccc4OC)c3n2)cc1
Tubulin (Homo sapiens) [4]
  Activity: Active
